These results are taken from patent US9392791B2, “Amide compound and use thereof for pest control” (Sumitomo Chemical Company, priority 2012, dated 2016).

Data set [1] concerns Haemaphysalis longicornis. The experiment in a line: Test Example 11: coated screw tube, nymphal ticks Haemaphysalis longicornis. The data set is classed as in vivo. The note with it: 2 mg compound in 0.2 mL acetone coated on inner wall of screw tube, non-blood-sucking nymphal ticks, after 2 days. How it is done:
2 mg of each of Compounds of Present Invention 1, 2, 13, 20, 21, 45 to 47, 52 to 55 and 57 and Intermediate Compound M6-13 was weighed in a screw tube (Maruemu No. 5; 27×55 mm), and 0.2 mL of acetone was added thereto and sealed with a cap to dissolve the compound. The screw tube was rotated and inverted to uniformity coat the drug solution onto the whole inner wall of the tube. After removing the cap, the solution was air-dried for about 2 hours, then non-blood-sucking nymphal ticks, Haemaphysalis longicornis (5 ticks/group) were released, and the tube was sealed with the cap. After 2 days, the number of dead ticks was examined, and the mortality was calculated according to the following equation: Mortality (%)=100×(Number of dead ticks/Number of tested ticks).

The test system of another data set is Musca domestica. The experiment in a line: Test Example 8: treated filter paper with sucrose bait, Musca domestica female adults. The data set is classed as in vivo. The conditions noted are these: 500 ppm, 0.7 ml on filter paper, after 24 hours. How it is done: The formulations of Compounds of Present Invention 1 to 3, 9, 13 to 16 and 57 as obtained in Formulation Example 5 were diluted with water, so as to have a concentration of the active ingredient of 500 ppm, to prepare a diluted liquid for test.
A filter paper having a diameter of 5.5 cm was spread on the bottom of a polyethylene cup having the same diameter and 0.7 ml of the diluted liquid for test was added dropwise onto the filter paper, and 30 mg of sucrose was uniformly placed as bait. Into the polyethylene cup, 10 female adults of Musca domestica were released, and the cup was sealed with a lid. After 24 hours, survived and dead number of Musca domestica was examined, and the mortality was calculated.

Broadly, the mortality is the share of the test organisms that died. In turn, `CCSc1ccccc1C(=O)N(C)c1ccc(C(F)(F)C(F)(F)F)cn1` [compound 13] displayed a mortality in data set [1] of 100%.
Same read-out and setting: the result for `CC[S+]([O-])c1cc(C(F)(F)F)ccc1C(=O)N(C)c1ccc(C(F)(F)C(F)(F)F)cn1` (stereo not shown) [compound 20] reads 100%; that for `CC[S+]([O-])c1cc(C(F)(F)F)ccc1C(=O)N(C)c1ccc(SC(F)(F)F)cn1` (stereo not shown) [compound 21], 100%.
As for `CC[S+]([O-])c1ccccc1C(=O)N(C)c1ccc(SC(F)(F)F)cn1` (stereo not shown) [compound 57], the mortality in the data set with Musca domestica was determined as 100%.
